Experimental data from patent US12378231B2, “Small molecules as monoacylglycerol lipase (MAGL) inhibitors, compositions and use thereof” (APOGEE PHARMACEUTICALS, INC., priority 2023, dated 2025).
Where two headings read alike, the source gives them in different places.

Tests used:
human recombinant FAAH = human recombinant FAAH (Homo sapiens (Human), UniProt O00519); experiment: In vitro inhibition of human recombinant FAAH activity (Cayman FAAH inhibitor screening kit, AMC arachidonoyl amide hydrolysis); assay type: biochemical
human recombinant FAAH, sequence (O00519 whole entry): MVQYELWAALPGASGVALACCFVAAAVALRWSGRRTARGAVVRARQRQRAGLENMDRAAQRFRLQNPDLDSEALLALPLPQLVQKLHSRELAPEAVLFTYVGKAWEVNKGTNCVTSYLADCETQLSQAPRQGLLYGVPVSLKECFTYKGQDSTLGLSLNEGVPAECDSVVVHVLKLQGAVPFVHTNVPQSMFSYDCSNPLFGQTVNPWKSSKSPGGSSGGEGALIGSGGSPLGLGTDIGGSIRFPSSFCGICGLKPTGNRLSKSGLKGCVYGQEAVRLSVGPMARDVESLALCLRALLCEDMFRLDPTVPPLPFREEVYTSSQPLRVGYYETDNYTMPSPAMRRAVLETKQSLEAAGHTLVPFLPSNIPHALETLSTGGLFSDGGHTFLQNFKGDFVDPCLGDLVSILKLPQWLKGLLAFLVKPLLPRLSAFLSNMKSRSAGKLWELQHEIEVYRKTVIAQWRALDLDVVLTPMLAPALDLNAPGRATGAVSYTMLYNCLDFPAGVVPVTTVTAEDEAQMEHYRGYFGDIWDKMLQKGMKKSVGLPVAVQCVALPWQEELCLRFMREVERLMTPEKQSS
Excerpt: In brief, FAAH hydrolyzes AMC arachidonoyl amide resulting in the release of the fluorescent product, while the inhibitor will inhibit the FAAH activity and thus reduce the fluorescent signal.

human recombinant MAGL = human recombinant MAGL (Homo sapiens (Human), UniProt Q99685); experiment: In vitro inhibition of human recombinant MAGL activity (Cayman inhibitor screening kit, 4-nitrophenylacetate hydrolysis); assay type: biochemical
human recombinant MAGL, sequence (Q99685 whole entry): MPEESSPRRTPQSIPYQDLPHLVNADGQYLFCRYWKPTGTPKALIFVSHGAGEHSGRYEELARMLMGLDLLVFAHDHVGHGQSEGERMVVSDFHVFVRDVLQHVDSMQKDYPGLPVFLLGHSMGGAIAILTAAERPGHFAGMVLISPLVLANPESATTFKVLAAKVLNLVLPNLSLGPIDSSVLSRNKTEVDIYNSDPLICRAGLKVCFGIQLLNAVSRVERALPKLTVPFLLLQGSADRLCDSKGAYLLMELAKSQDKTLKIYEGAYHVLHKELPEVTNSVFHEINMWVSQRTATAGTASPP
Excerpt: The inhibitory effect of the synthetic chemicals on activity of human recombinant MAGL was studied using commercial inhibitor screening kit (Cayman Chemical). […] The absorbance of the yellow product can be analyzed using the plate reader. […]

[1] = human recombinant MAGL, read-out: Inhibition on MAGL activity (IC50)

| IC50 (human recombinant FAAH) | IC50 (human recombinant MAGL; [1]) | Structure (SMILES) | IC50 (human recombinant MAGL) |
| --- | --- | --- | --- |
| 1000 to 10000 nM | 1 to 10 nM | COc1cccc(C(c2cccc(OC)c2)N2CCN(C(=O)n3nnc4cc(C#N)ccc43)CC2)c1 [Example 96, 1-(4-(bis(3-methoxyphenyl)methyl)piperazine-1-carbonyl)-1H-benzo[d][1,2,3]triazole-5-carbonitrile] | – |
| 1000 to 10000 nM | 1 to 10 nM | COc1cccc(C(c2cccc(OC)c2)N2CCN(C(=O)n3cnc(C#N)n3)CC2)c1 [Example 97, 1-(4-(bis(3-methoxyphenyl)methyl)piperazine-1-carbonyl)-1H-1,2,4-triazole-3-carbonitrile] | – |
| > 50000 nM | 1 to 10 nM | N#Cc1ccc2nnn(C(=O)N3CCN(C(c4ccc5c(c4)OC(F)(F)O5)c4ccc5c(c4)OC(F)(F)O5)CC3)c2c1 [Example 98, 1-(4-(bis(2,2-difluorobenzo[d][1,3]dioxol-5-yl)methyl)piperazine-1-carbonyl)-1H-benzo[d][1,2,3]triazole-6-carbonitrile] | – |
| > 50000 nM | 1 to 10 nM | N#Cc1ccc2c(c1)nnn2C(=O)N1CCN(C(c2ccc3c(c2)OC(F)(F)O3)c2ccc3c(c2)OC(F)(F)O3)CC1 [Example 99, 1-(4-(bis(2,2-difluorobenzo[d][1,3]dioxol-5-yl)methyl)piperazine-1-carbonyl)-1H-benzo[d][1,2,3]triazole-5-carbonitrile] | – |
| > 50000 nM | 1 to 10 nM | N#Cc1ccc(C(c2ccc(C#N)cc2)N2CCN(C(=O)n3nnc4ccc(C#N)cc43)CC2)cc1 [Example 100, 4,4′-((4-(6-cyano-1H-benzo[d][1,2,3]triazole-1-carbonyl)piperazin-1-yl)methylene)dibenzonitrile] | – |
| > 50000 nM | 1 to 10 nM | N#Cc1ccc(C(c2ccc(C#N)cc2)N2CCN(C(=O)n3nnc4cc(C#N)ccc43)CC2)cc1 [Example 101, 4,4′-((4-(5-cyano-1H-benzo[d][1,2,3]triazole-1-carbonyl)piperazin-1-yl)methylene)dibenzonitrile] | – |
| 1000 to 10000 nM | 1 to 10 nM | N#Cc1ccc(C(c2ccc(C#N)cc2)N2CCN(C(=O)n3cnc(C#N)n3)CC2)cc1 [Example 102, 4,4′-((4-(3-cyano-1H-1,2,4-triazole-1-carbonyl)piperazin-1-yl)methylene)dibenzonitrile] | – |
| 1000 to 10000 nM | 1 to 10 nM | COc1ccc(C(c2cccnc2)N2CCN(C(=O)n3cnc(C#N)n3)CC2)cc1 (stereo not drawn) [Example 104, 1-(4-((4-methoxyphenyl)(pyridin-3-yl)methyl)piperazine-1-carbonyl)-1H-1,2,4-triazole-3-carbonitrile] | – |
| 1000 to 10000 nM | 1 to 10 nM | N#Cc1ncn(C(=O)N2CCN(C(c3ccc4c(c3)CCO4)c3ccc4c(c3)CCO4)CC2)n1 [Example 107, 1-(4-(bis(2,3-dihydrobenzofuran-5-yl)methyl)piperazine-1-carbonyl)-1H-1,2,4-triazole-3-carbonitrile] | – |
| ~10000 nM | 1 to 10 nM | O=C(N1CCN(C(c2ccc3c(c2)CCO3)c2ccc3c(c2)CCO3)CC1)n1nnc2ccccc21 [Example 108, (1H-benzo[d][1,2,3]triazol-1-yl)(4-(bis(2,3-dihydrobenzofuran-5-yl)methyl)piperazin-1-yl)methanone] | – |
| ~50000 nM | 10 to 100 nM | O=C(N1CCN(C(c2ccc3ncccc3c2)c2ccc3ncccc3c2)CC1)n1nnc2ccccc21 [Example 109, (1H-benzo[d][1,2,3]triazol-1-yl)(4-(di(quinolin-6-yl)methyl)piperazin-1-yl)methanone] | – |
| ~10000 nM | 1 to 10 nM | Cn1ncc2cc(C(c3ccc4c(cnn4C)c3)N3CCN(C(=O)n4cnc(C#N)n4)CC3)ccc21 [Example 111, 1-(4-(bis(1-methyl-1H-indazol-5-yl)methyl)piperazine-1-carbonyl)-1H-1,2,4-triazole-3-carbonitrile] | – |
| ~50000 nM | 10 to 100 nM | Cn1ncc2cc(C(c3ccc4c(cnn4C)c3)N3CCN(C(=O)n4nnc5ccccc54)CC3)ccc21 [Example 112, (1H-benzo[d][1,2,3]triazol-1-yl)(4-(bis(1-methyl-1H-indazol-5-yl)methyl)piperazin-1-yl)methanone] | – |
| ~10000 nM | 1 to 10 nM | COc1ccc(C(c2ccc(OC)nc2)N2CCN(C(=O)n3cnc(C#N)n3)CC2)cn1 [Example 114, 1-(4-(bis(6-methoxypyridin-3-yl)methyl)piperazine-1-carbonyl)-1H-1,2,4-triazole-3-carbonitrile] | – |
| 10000 to 50000 nM | 1 to 10 nM | N#Cc1ncn(C(=O)N2CCN(C(c3ccc(-n4cccn4)cc3)c3ccc(-n4cccn4)cc3)CC2)n1 [Example 116, 1-(4-(bis(4-(1H-pyrazol-1-yl)phenyl)methyl)piperazine-1-carbonyl)-1H-1,2,4-triazole-3-carbonitrile] | – |
| 100 to 1000 nM | 1 to 10 nM | N#Cc1ncn(C(=O)N2CCN(C(c3ccc4occc4c3)c3ccc4occc4c3)CC2)n1 [Example 117, 1-(4-(di(benzofuran-5-yl)methyl)piperazine-1-carbonyl)-1H-1,2,4-triazole-3-carbonitrile] | – |
| ~10000 nM | 1 to 10 nM | COc1ccc(C(c2ccc3c(c2)COCO3)N2CCN(C(=O)n3cnc(C#N)n3)CC2)cn1 (stereo not drawn) [Example 118, 1-(4-((4H-benzo[d][1,3]dioxin-6-yl)(6-methoxypyridin-3-yl)methyl)piperazine-1-carbonyl)-1H-1,2,4-triazole-3-carbonitrile] | – |
| > 50000 nM | 1 to 10 nM | N#Cc1ncn(C(=O)N2CCN(C(c3ccc(-n4cccn4)cc3)c3ccc4c(c3)COCO4)CC2)n1 (stereo not drawn) [Example 120, 1-(4-((4-(1H-pyrazol-1-yl)phenyl)(4H-benzo[d][1,3]dioxin-6-yl)methyl)piperazine-1-carbonyl)-1H-1,2,4-triazole-3-carbonitrile] | – |
| ~100 nM | 1 to 10 nM | N#Cc1ccc2c(c1)nnn2C(=O)N1CCN(C(c2ccc(F)cc2)c2ccc(F)cc2)CC1 [Example 121, 1-(4-(bis(4-fluorophenyl)methyl)piperazine-1-carbonyl)-1H-benzo[d][1,2,3]triazole-5-carbonitrile] | – |
| ~50000 nM | 10 to 100 nM | Cn1ncc2cc(C(=C3CCN(C(=O)n4nnc5ccccc54)CC3)c3ccc4c(cnn4C)c3)ccc21 [Example 122, (1H-benzo[d][1,2,3]triazol-1-yl)(4-(bis(1-methyl-1H-indazol-5-yl)methylene)piperidin-1-yl)methanone] | – |
| ~10000 nM | 1 to 10 nM | Cn1ncc2cc(C(=C3CCN(C(=O)n4cnc(C#N)n4)CC3)c3ccc4c(cnn4C)c3)ccc21 [Example 123, 1-(4-(bis(1-methyl-1H-indazol-5-yl)methylene)piperidine-1-carbonyl)-1H-1,2,4-triazole-3-carbonitrile] | – |
| 1000 to 10000 nM | 1 to 10 nM | N#Cc1ncn(C(=O)N2CCC(=C(c3ccc4c(c3)COCO4)c3ccc4c(c3)COCO4)CC2)n1 [Example 124, 1-(4-(bis(4H-benzo[d][1,3]dioxin-6-yl)methylene)piperidine-1-carbonyl)-1H-1,2,4-triazole-3-carbonitrile] | – |
| 1000 to 10000 nM | 1 to 10 nM | N#Cc1ncn(C(=O)N2CC3CC(=C(c4ccc5c(c4)COCO5)c4ccc5c(c4)COCO5)CC3C2)n1 (stereo not drawn) [Example 125, meso-1-(5-(bis(4H-benzo[d][1,3]dioxin-6-yl)methylene)octahydrocyclopenta[c]pyrrole-2-carbonyl)-1H-1,2,4-triazole-3-carbonitrile] | – |
| 1000 to 10000 nM | 1 to 10 nM | N#Cc1ncn(C(=O)N2CC3(CC(=C(c4ccc5c(c4)COCO5)c4ccc5c(c4)COCO5)C3)C2)n1 [Example 126, 1-(6-(bis(4H-benzo[d][1,3]dioxin-6-yl)methylene)-2-azaspiro[3.3]heptane-2-carbonyl)-1H-1,2,4-triazole-3-carbonitrile] | – |
| 1000 to 10000 nM | 1 to 10 nM | N#Cc1ncn(C(=O)N2CCCC(=C(c3ccc4c(c3)COCO4)c3ccc4c(c3)COCO4)CC2)n1 [Example 128, 1-(4-(bis(4H-benzo[d][1,3]dioxin-6-yl)methylene)azepane-1-carbonyl)-1H-1,2,4-triazole-3-carbonitrile] | – |
| 1000 to 10000 nM | 1 to 10 nM | N#Cc1ncn(C(=O)N2CCC(C(c3ccc4c(c3)COCO4)c3ccc4c(c3)COCO4)CC2)n1 [Example 129, 1-(4-(bis(4H-benzo[d][1,3]dioxin-6-yl)methyl)piperidine-1-carbonyl)-1H-1,2,4-triazole-3-carbonitrile] | – |
| 106 nM | > 50000 nM | O=C(Nc1cnccc1Cl)N1CCN(Cc2ccc3c(c2)OC(F)(F)O3)CC1 [JNJ-42165279, reference compound] | – |
| 1.9 nM | > 10000 nM | O=C(Nc1cccnn1)N1CCC(=Cc2cccc(Oc3ccc(C(F)(F)F)cn3)c2)CC1 [PF-04457845, reference compound] | – |

| Structure (SMILES) | IC50 (human recombinant FAAH) | IC50 (human recombinant MAGL; [1]) | IC50 (human recombinant MAGL) |
| --- | --- | --- | --- |
| N#Cc1ncn(C(=O)N2C3CCC2CC(=C(c2ccc4c(c2)COCO4)c2ccc4c(c2)COCO4)C3)n1 [Example 127, 1-(3-(bis(4H-benzo[d][1,3]dioxin-6-yl)methylene)-8-azabicyclo[3.2.1]octane-8-carbonyl)-1H-1,2,4-triazole-3-carbonitrile] | > 50000 nM | – | 1 to 10 nM |
| N#Cc1ncn(C(=O)N2C3CCC2CC(C(c2ccc4c(c2)COCO4)c2ccc4c(c2)COCO4)C3)n1 (stereo not drawn) [Example 130, 1-(3-(bis(4H-benzo[d][1,3]dioxin-6-yl)methyl)-8-azabicyclo[3.2.1]octane-8-carbonyl)-1H-1,2,4-triazole-3-carbonitrile] | > 50000 nM | – | 1 to 10 nM |
